In paper PMC12765074, “Mechanistic insights into enterocin C targeting the undecaprenyl phosphate recycling protein BacA” (The Journal of Biological Chemistry, 2025):
“Also recorded” adds a separate entry of the source.

What was measured:
[1] = tested on: E. faecalis (V583-derivative strain, WT); format: cell-based, Enterococcus faecalis; details: 6 μl droplets on a lawn of E. faecalis, BHI 0.75% agar, overnight; representative of three independent experiments
BacAef [2] = molecular target: T1, BacAef (Enterococcus faecalis, UniProt A0ACD6TE02); assay: DSS crosslinking; format: binding; details: BacAef and peptide 17 μM each, DSS 100- or 1000-fold excess, 30 min, 4 °C
Method: Crosslinking experiments were performed using the amine-reactive, membrane-permeable, and non-cleavable crosslinker disuccinimidyl suberate (DSS) purchased from Sigma. EntC peptides and BacA protein were mixed at equimolar concentrations (17 μM) in buffer D in the presence of an excess of DSS crosslinker (1000-fold or 100-fold) in a final reaction volume of 20 μl. The reaction was incubated for 30 min at 4°C, and any unreacted DSS was quenched with 50 mM Tris-HCl. After separation on a 12% acrylamide gel, proteins were electrotransferred onto polyvinylidene difluoride (PVDF) membrane, and BacA was detected using peroxidase-coupled anti-His tag antibody (Penta-His HRP conjugate from Qiagen, RRID: AB_3699318) by chemiluminescence detection (Western Lightning Plus-ECL, PerkinElmer) using the ChemiDoc MP system (Bio-Rad).

BacAef [3] = molecular target: T1, BacAef; format: binding
Method: Thermal stability of BacA protein in different mixtures of peptides was performed by DSC on a MicroCal model VP-DSC (Malvern Panalytical, Malvern, UK). BacA (33 μM) was mixed with different mixtures of peptides at twice the BacA concentration (i.e. 66 μM). Each measurement was preceded by a baseline scan with the standard buffer. Scans were performed at 1 K/min (60 °C/h) temperature ramp between 30 °C and 100 °C. The heat capacity of the buffer was subtracted from that of the protein sample before analysis. The thermodynamic parameters were determined by fitting the data to the following equation: ΔCp(T)=Kd(T)ΔHcalΔHvH/[1+Kd(T)]^2RT^2 where Kd is the equilibrium constant for a two-state process, ΔHvH the enthalpy calculated based on a two-state process and ΔHcal the measured enthalpy.

BacAef [4] = molecular target: T1, BacAef; assay: ITC, BacAef; format: binding; details: 20 °C; for -TΔS / ΔG / ΔH: into [BacAef] 33 μM
Method: (§1) ITC experiments were performed with an ITC200 isothermal titration calorimeter from MicroCal (Malvern Panalytical, Malvern, UK). The experiments were carried out at 20 °C. The protein concentration in the microcalorimeter cell (0.2 ml) was 33 μM. Nineteen 2-μl injections of peptides at 400 μM were performed at intervals of 240 s while stirring at 500 rpm. To limit buffer mismatching effect between the cell and the syringe, and the heat-of-dilution effect for having glycerol in the protein solution, the latter were extensively dialyzed, prior to the ITC measurement, in a buffer containing 20 mM Tris-HCl pH 7.4, 200 mM NaCl, 0.1% DDM, to remove glycerol. Then, the dialysis buffer was used to dilute the EntC peptides to further limit buffer mismatching. The experimental data were fitted to theoretical titration curves with the software supplied by MicroCal (ORIGIN). This software uses the relationship between the heat generated by each injection and ΔH (enthalpy change in kcal/mol), Ka (the association binding constant in M^−1), n (the number of binding sites), total protein concentration and free and total ligand concentrations.

BacAef/EntC1 = BacAef/EntC1 (Enterococcus faecalis, UniProt A0ACD6TE02+Q9L9U6); assay: ITC, BacAef/EntC1 mixture; format: binding
Method: as §1

BacAef [5] = molecular target: T1, BacAef; format: biochemical
BacAef/LcnGα = BacAef/LcnGα (Enterococcus faecalis, UniProt A0ACD6TE02); assay: ITC, BacAef/LcnGα mixture; format: binding; details: 20 °C
Method: as §1

BacAef [6] = molecular target: T1, BacAef; assay: UppS-coupled C55-PP phosphatase assay in liposomes, BacAef; format: biochemical; details: liposomes
Method: The reconstitution of BacA and PgpB in liposomes was achieved through adapted protocols previously described ([48]). Liposomes were prepared by rehydrating a lipid film of DOPC: DOPG: DOPE (3 mg: 0.75 mg: 1.25 mg) after 4 h of desiccation by adding 1 ml of buffer (20 mM HEPES, pH 7.5, 50 mM NaCl, 15% glycerol). […] The lipid suspension underwent 10 freeze-thaw cycles in liquid nitrogen and was extruded through a 100 nm polycarbonate membrane (Millipore). Protein reconstitution was performed by destabilizing the liposomes with 5.5 mM Triton X-100 for 15 min. The protein was added at a final concentration of 15 μg/ml and the mixture was incubated at 4 °C for 15 min.
The liposomes were used to measure the C55-PP phosphatase activity of BacA in a membrane environment as follows. For each kinetic assay, 5 μl of a reaction mixture containing 20 μM C15-PP, 20 μM [^14C]C5-PP, 180 μM C5-PP in 20 mM HEPES, pH 7.5, 50 mM NaCl, and 15% glycerol were mixed with 5 μl of protein-free liposomes (as a control) or BacA-containing liposomes. The mixture was then supplemented with UppS at a final concentration of 0.2 mg/ml to initiate the enzymatic synthesis of C55-PP. The EntC peptides were added at various concentrations from a water solution. […] Substrates and products were separated and quantified by thin-layer chromatography as previously described for C55-PP phosphatase assay in detergent.

[7] = molecular target: N-terminal His6-tagged BacA from E. faecalis (BacAef) (Enterococcus faecalis); assay: ITC; peptides (400 μM) in the syringe titrated into the protein, or the protein premixed with one peptide, (33 μM) in the cell; 20 °C; 20 mM Tris-HCl pH 7.4, 200 mM NaCl, 0.1% DDM; single binding site model
[8] = molecular target: N-terminal His6-tagged BacA from E. faecalis (BacAef) (Enterococcus faecalis); assay: cross-linking; DSS (100- or 1000-fold excess), peptides and BacA at equimolar 17 μM in buffer D (20 mM HEPES pH 7.5, 0.2 M NaCl, 10% glycerol, 0.1% DDM), 30 min at 4 °C, quenched with 50 mM Tris-HCl; SDS-PAGE and anti-His blot of BacA
[9] = molecular target: N-terminal His6-tagged BacA from E. faecalis (BacAef) (Enterococcus faecalis)
[10] = molecular target: N-terminal His6-tagged BacA from E. faecalis (BacAef) (Enterococcus faecalis); assay: ITC; EntC1 (400 μM) in the syringe titrated into a mixture containing BacAef and EntC2 (33 μM) in the cell; 20 °C; 20 mM Tris-HCl pH 7.4, 200 mM NaCl, 0.1% DDM
[11] = molecular target: N-terminal His6-tagged BacA from E. faecalis (BacAef) (Enterococcus faecalis); remark: listed apart in the source
[12] = molecular target: BacAef + LcnGα mixture (Enterococcus faecalis | Lactococcus lactis); assay: ITC; peptides (400 μM) in the syringe titrated into the protein, or the protein premixed with one peptide, (33 μM) in the cell; 20 °C; 20 mM Tris-HCl pH 7.4, 200 mM NaCl, 0.1% DDM; single binding site model
[13] = molecular target: N-terminal His6-tagged BacA from E. faecalis (BacAef) (Enterococcus faecalis); remark: listed apart in the source
L. lactis strains = details: ref [6], [7], [8], cited from earlier work
L. lactis IL1403 = assay: spot-on-lawn antibacterial assay, L. lactis; format: cell-based, Lactococcus lactis; details: 6 μl droplets, L. lactis IL1403, M17G agar, overnight
[14] = molecular target: Fluorescein-labelled EntC1 (Enterococcus faecalis C901); assay: flow-induced dispersion analysis (FIDA)
[15] = molecular target: Fluorescein-labelled EntC1 (Enterococcus faecalis C901); assay: flow-induced dispersion analysis (FIDA); as the titration without EntC2, but in the presence of 200 nM EntC2 (twice the concentration of Fluo-EntC1); 25 °C; 20 mM Tris-HCl pH 7.4, 200 mM NaCl, 0.1% DDM; 1:1 binding model
[16] = ITC, peptides 400 μM into [BacAef] 33 μM, 20 mM Tris-HCl pH 7.4, 200 mM NaCl, 0.1% DDM, at least triplicate
[17] = ITC, 20 °C, into [BacAef/EntC1]

## CC[C@H](C)[C@H](NC(=O)CNC(=O)[C@H](CCCCN)NC(=O)[C@H](C)NC(=O)[C@H](CC(C)C)NC(=O)CNC(=O)[C@H](C)NC(=O)[C@@H](NC(=O)[C@H](Cc1ccccc1)NC(=O)[C@H](CC(=O)O)NC(=O)[C@H](Cc1ccc(O)cc1)NC(=O)[C@H](C)NC(=O)[C@@H]1CCCN1C(=O)[C@H](CCC(N)=O)NC(=O)[C@H](CC(C)C)NC(=O)[C@H](Cc1c[nH]c2ccccc12)NC(=O)[C@@H]1CCCN1C(=O)[C@H](CC(C)C)NC(=O)[C@H](Cc1c[nH]c2ccccc12)NC(=O)[C@H](CCCCN)NC(=O)CNC(=O)[C@@H]1CCCN1C(=O)CN)C(C)C)C(=O)NCC(=O)N[C@@H](CCCCN)C(=O)N[C@@H](CCC(=O)O)C(=O)NCC(=O)N[C@@H](CC(N)=O)C(=O)N[C@@H](CCCCN)C(=O)N[C@@H](CC(N)=O)C(=O)N[C@@H](CCCCN)C(=O)N[C@@H](Cc1c[nH]c2ccccc12)C(=O)N[C@@H](CCCCN)C(=O)N[C@@H](CC(N)=O)C(=O)N[C@H](C(=O)O)C(C)C (single isomer, unassigned) [EntC2]
[1]
  antibacterial activity (spot-on-lawn), E. faecalis: neither peptide exhibited antibacterial activity when applied individually
BacAef [2]
  crosslinked complex band with BacAef (SDS-PAGE, western blot): a very faint band
BacAef [3]; EntC2 at twice the concentration of BacAef
  DSC signal change of BacAef: did not change the DSC signal
BacAef [4]; ITC
  -TΔS: No binding
  ΔG: No binding
  ΔH: No binding
BacAef [4]; [16]
  KD: No binding
BacAef [4]; titration on BacAef alone
  binding to BacAef (ITC, words): No binding
BacAef/EntC1; EntC2 into BacAef/EntC1 versus EntC1 into BacAef
  affinity of second binding event relative to EntC1 binding (fold): about 10 -fold
BacAef/EntC1; ITC, 20 °C, 400 μM into [BacAef/EntC1] 33 μM
  n: 0.95 ± 0.01
BacAef/EntC1; [17]
  -TΔS: 6.5 kcal/mol
  ΔG: -10.3 kcal/mol
  ΔH: -16.8 kcal/mol
BacAef [5]; DDM micelles, EntC2 up to 50 μM, pH 7.4, 37 °C, 10 min
  inhibition of BacAef C55-PP phosphatase activity: no inhibition
BacAef/LcnGα; 400 μM into [BacAef/LcnGα] 33 μM
  n: 0.77 ± 0.01
BacAef/LcnGα; into [BacAef/LcnGα]
  -TΔS: 10.5 kcal/mol
  ΔG: -9.0 kcal/mol
  ΔH: -19.5 kcal/mol
BacAef [6]
  effect on BacAef activity in liposomes: no effect

## [Ca+2].[Cl-].[Cl-] [CaCl2]
BacAef [5]; after 500 μM EDTA, pH 7.5, 0.1% DDM
  restoration of BacAef activity following EDTA treatment: restored

## O=C(O)CN(CCN(CC(=O)O)CC(=O)O)CC(=O)O [EDTA]
BacAef [5]
  effect on BacAef C55-PP phosphatase activity: inhibited its activity

## EntC1-LcnGβ chimera bacteriocin (EntC1 and LcnGβ together) (complex)
[7]
  Kd: 307 nM
  dH: -19.4 kcal/mol
  stoichiometry N: 0.79

## Enterocin C peptide EntC1 (mature, synthetic)
[8]
  stoichiometry N: 1
[7]
  Kd: 306 nM
  dH: -5.4 kcal/mol
  stoichiometry N: 0.6
[9]
  DSC: Tm of BacAef (33 μM) with the peptide at 66 μM (66.3°C without peptide): 73 °C
  DSC: enthalpy of denaturation ΔH of BacAef (33 μM) with the peptide at 66 μM (26.7 kcal/mol without peptide): 45.3 kcal/mol
[10]
  Kd: 480 nM
  dH: -27.6 kcal/mol
  stoichiometry N: 0.69
[11]
  IC50 of inhibition of the C55-PP phosphatase activity of BacAef in DDM micelles: 800 nM

## Enterocin C peptide EntC2 (mature, synthetic)
[12]
  dH: -19.5 kcal/mol
  stoichiometry N: 0.77

## Lactococcin G (LcnGα and LcnGβ together) (complex)
[13]
  IC50 of inhibition of the C55-PP phosphatase activity of BacAef in vitro: 800 nM
[7]
  Kd: 165 nM
  dH: -20.4 kcal/mol
  stoichiometry N: 0.62

## Lactococcin G [LcnG, reference compound]
[1]
  antibacterial activity (spot-on-lawn), E. faecalis: E. faecalis was only susceptible to EntC; also recorded: inactive against E. faecalis
L. lactis strains; 1:1 ratio of LcnGα and LcnGβ
  membrane permeabilization: membrane permeabilization to monovalent cations
L. lactis strains
  antibacterial activity against L. lactis strains: antibacterial activity at nanomolar concentrations
BacAef [3]; LcnG versus EntC
  difference in Tm between EntC and LcnG complexes with BacAef: 6.8 °C
  difference in ΔH between EntC and LcnG complexes with BacAef: 7.8 kcal/mol
BacAef [4]; ITC
  -TΔS: 11.3 kcal/mol
  ΔG: -9.1 kcal/mol
  ΔH: -20.4 kcal/mol
BacAef [4]; [16]
  Kd: 165 ± 19 nM
BacAef [4]; ITC, peptides 400 μM into [BacAef] 33 μM, pH 7.4, 0.1% DDM, at least triplicate
  n: 0.62 ± 0.01
BacAef [5]; DDM micelles, 20 mM Tris-HCl pH 7.4, 400 μM CaCl2, 150 mM NaCl, 0.1% DDM, 50 μM [14C]C55-PP, 10 min, 37 °C, TLC, EntC vs EntC1 p-value = 0.0007, read-out: IC50, BacAef C55-PP phosphatase activity
  IC50: 800 nM
L. lactis IL1403
  antibacterial activity (spot-on-lawn), L. lactis: sensitivity to both bacteriocins

## N-terminal His6-tagged BacA from E. faecalis (BacAef) (enzyme)
[14]
  Kd: 96 nM
[8]
  stoichiometry N: 2
[15]
  Kd: 86 nM
